# “Also recorded” adds a separate entry of the source.
# Legend:
# PKA subunits = assay: Western blot of mitochondria-associated proteins, PKA subunits; type: cell-based, mouse; conditions: brown adipocytes, 10 μM, after 6-8 h
# Description: Cells and tissues were lysed in 10 mM Tris pH 7.5, 10 mM NaCl, 1 mM EDTA and 0.5% Triton X-100, supplemented with complete mini EDTA-free protease (Roche Diagnostics) and phosphatase (Cocktail 2 and 3, Sigma) inhibitors, followed by 10 second sonication. For analysis of mitochondrial proteins, mitochondria were isolated from cells by dual centrifugation, as described. Protein lysates were separated by SDS-PAGE and transferred to a nitrocellulose membrane. Transfer was confirmed by Ponceau staining (P7170, Sigma). After blocking in 5% milk, 0.1% Tween-20 in Tris-buffered saline (TBS), primary antibody was incubated overnight at 4° C. in 5% bovine serum albumin and 0.1% Tween-20 in TBS. Primary antibodies against ACTB (GTX109639, GeneTex), AKAP1 (5203, Cell Signaling), AKAP6 (07-087, Millipore), Cytochrome c (136F3, Cell Signaling), electron transport chain protein complexes (Total OXPHOS rodent WB antibody cocktail ab110413, Abcam), GAPDH (GTX100118, Genetex), active p38 MAPK (V1211, Promega), total p38 MAPK (8690, Cell Signaling), PGC1α (AB3242, Millipore), phospho-(Ser/Thr) PKA substrate (9621, Cell Signaling), PKA C-α (4782, Cell Signaling), PKA RII-β (ab75993, Abcam), and UCP1 (662045, Calbiochem) were used at 1:2000. […] Quantification using representative bands from the Ponceau staining was performed with ImageJ. […]
# AKAP13 = target: T1, AKAP13 (Rattus norvegicus, UniProt F1M3G7); assay: DARTS in H9c2 cell extracts, AKAP13; type: binding; conditions: 20 μM, 1 h
# T1 construct: DARTS assay in H9c2 cell extracts treated with vehicle or 20 μM Z160 for 1 h; endogenous in cells; host or cells: rat H9c2 cells
# Description: Rat H9c2 cells were grown in DMEM supplemented with 10% FBS, 25 mM glucose, 1 mM pyruvate, and 2 mM glutamine Neonatal rat ventricular myocytes (NRVM) were isolated and cultured as previously described. Briefly, 2-4 day old rats were sacrificed and myocytes and fibroblasts were isolated and separated using a Percoll density gradient. Following isolation, NRVMs were plated on gelatin-coated plates in DMEM containing 10% FBS, 25 mM glucose, 1 mM pyruvate, and 2 mM glutamine The next day, FBS was replaced by 1× insulin-transferrin-selenium supplement and the cells were treated with vehicle or 10 μM Z160 for 2 days, with or without 60 μM isoproterenol or 50 μM phenylephrine.
# […] assays were performed according to known methods. Briefly, BAT or cells within a 10 cm dish were lysed with 600 μl M-PER buffer containing protease and phosphatase inhibitors. Debris was pelleted by centrifugation at 18,000 g for 10 min at 4° C., and the lysates were harvested and supplemented with TNC buffer (50 mM Tris-HCl, 50 mM NaCl, 10 mM CaCl2). The lysates were split into two tubes and treated with either vehicle or 20 μM Z160 for 1 h at room temperature. For experiment with BAT, 100 μg of lysate was incubated with different Z160 concentrations. […]
# C57BL/6J male mice = assay: Thermogenesis in vivo after subcutaneous injection; conditions: single subcutaneous injection 1.5 mg/kg
# Description: All mouse studies were conducted in accordance with and approved by the Institutional Animal Research Committee of the University of California, Los Angeles. C57BL/6J male mice were obtained from the Jackson Laboratory. For the drug injection, Z160 (diluted in 100 μl DMSO) was injected subcutaneously, near BAT, at 1.5 mg/kg body weight and compared with vehicle alone. […] Body temperature was obtained with a rectal probe (BAT-12, Physitemp). Aspartate aminotransferase (AST) activity was determined from plasma according to the manufacturer's protocol (MAK055, Sigma).
# T1 sequence (F1M3G7 whole entry): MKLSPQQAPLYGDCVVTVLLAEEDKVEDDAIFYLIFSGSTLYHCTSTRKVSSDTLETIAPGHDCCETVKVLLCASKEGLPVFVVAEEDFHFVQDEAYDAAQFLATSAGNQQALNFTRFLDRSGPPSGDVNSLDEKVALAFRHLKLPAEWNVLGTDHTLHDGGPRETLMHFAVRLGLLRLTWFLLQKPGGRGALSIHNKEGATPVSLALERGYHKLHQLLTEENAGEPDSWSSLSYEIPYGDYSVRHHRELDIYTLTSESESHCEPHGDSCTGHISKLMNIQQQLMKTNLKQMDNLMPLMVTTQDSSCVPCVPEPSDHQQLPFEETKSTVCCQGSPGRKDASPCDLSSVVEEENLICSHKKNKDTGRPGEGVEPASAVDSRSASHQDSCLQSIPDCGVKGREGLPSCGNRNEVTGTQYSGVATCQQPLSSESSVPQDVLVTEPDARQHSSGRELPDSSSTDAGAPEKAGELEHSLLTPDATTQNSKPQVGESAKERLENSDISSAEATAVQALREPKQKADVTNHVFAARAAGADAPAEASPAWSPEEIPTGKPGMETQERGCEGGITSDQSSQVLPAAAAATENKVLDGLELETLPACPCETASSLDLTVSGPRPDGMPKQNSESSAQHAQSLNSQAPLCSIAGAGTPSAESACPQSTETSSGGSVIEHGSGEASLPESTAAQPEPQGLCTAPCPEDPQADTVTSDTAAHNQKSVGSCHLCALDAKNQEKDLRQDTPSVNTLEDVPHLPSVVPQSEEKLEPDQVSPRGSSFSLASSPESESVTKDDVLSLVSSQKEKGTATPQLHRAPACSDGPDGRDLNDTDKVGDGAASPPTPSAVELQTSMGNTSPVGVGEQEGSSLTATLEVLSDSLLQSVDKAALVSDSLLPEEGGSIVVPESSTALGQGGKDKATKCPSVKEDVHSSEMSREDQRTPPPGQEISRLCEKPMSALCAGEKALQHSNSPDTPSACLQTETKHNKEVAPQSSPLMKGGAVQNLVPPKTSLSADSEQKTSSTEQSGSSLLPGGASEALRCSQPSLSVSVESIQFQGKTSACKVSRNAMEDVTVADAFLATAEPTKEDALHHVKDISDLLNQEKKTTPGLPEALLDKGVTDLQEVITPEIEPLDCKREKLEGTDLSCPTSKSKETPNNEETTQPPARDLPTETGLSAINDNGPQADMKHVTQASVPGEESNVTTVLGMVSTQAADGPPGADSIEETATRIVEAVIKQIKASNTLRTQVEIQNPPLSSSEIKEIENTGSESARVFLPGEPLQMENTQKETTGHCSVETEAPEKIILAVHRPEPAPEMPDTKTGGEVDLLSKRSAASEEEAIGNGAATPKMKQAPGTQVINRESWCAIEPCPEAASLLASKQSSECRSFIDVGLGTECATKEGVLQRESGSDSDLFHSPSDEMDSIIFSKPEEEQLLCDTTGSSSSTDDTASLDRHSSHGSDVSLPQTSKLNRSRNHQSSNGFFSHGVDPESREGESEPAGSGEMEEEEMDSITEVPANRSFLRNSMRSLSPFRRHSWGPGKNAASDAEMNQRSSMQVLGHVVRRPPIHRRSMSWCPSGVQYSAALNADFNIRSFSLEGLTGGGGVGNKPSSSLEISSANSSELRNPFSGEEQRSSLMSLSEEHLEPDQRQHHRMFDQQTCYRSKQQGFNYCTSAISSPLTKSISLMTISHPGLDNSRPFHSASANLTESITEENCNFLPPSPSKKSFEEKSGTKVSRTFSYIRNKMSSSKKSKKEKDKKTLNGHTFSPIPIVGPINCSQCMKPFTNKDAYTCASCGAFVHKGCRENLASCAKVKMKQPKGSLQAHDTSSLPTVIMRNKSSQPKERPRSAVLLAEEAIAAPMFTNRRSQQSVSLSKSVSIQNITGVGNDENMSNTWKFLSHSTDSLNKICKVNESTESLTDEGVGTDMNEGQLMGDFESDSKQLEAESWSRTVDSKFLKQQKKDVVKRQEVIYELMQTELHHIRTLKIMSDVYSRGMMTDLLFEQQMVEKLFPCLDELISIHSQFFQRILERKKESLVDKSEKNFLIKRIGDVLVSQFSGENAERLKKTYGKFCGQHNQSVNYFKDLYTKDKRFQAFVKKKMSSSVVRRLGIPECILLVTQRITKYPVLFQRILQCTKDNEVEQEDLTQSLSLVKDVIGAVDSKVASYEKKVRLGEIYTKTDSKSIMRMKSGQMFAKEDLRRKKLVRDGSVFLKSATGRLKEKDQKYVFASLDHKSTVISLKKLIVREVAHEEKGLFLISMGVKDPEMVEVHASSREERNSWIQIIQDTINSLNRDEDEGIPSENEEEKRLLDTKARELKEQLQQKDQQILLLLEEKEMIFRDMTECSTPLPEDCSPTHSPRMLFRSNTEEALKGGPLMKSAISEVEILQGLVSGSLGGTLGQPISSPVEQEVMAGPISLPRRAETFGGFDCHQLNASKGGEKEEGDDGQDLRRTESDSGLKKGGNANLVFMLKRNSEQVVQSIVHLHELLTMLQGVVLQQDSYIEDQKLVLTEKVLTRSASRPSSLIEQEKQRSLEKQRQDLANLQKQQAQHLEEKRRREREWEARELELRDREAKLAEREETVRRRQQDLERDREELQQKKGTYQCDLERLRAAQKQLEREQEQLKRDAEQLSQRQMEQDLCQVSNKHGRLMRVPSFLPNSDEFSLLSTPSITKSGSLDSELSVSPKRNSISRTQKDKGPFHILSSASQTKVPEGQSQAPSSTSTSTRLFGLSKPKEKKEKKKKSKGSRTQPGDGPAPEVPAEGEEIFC
smiles,measurement,setting,value
COc1ccc(NC(=O)CSc2nc3ccccc3c(=O)[nH]2)c(OC)c1 [Z160],mitochondrial association of PKA subunits,PKA subunits,increased mitochondrial association
same,pronase susceptibility of AKAP13,AKAP13,altered pronase susceptibility; also recorded: change of AKAP13 conformation
same,Ucp1 mRNA and protein levels in BAT,C57BL/6J male mice,elevated
same,expression of genes implicated in mitochondrial function and lipolysis in BAT,C57BL/6J male mice,enhanced expression
same,plasma glucose levels,C57BL/6J male mice,157.6 ± 26.2 mg/dL
same,body temperature,C57BL/6J male mice; measured 24 h later,38.3 °C
same,increase in body temperature,"C57BL/6J male mice; measured 24 h later, vs vehicle",0.8 °C
same,liver toxicity assessed by circulating aspartate aminotransferase (AST) levels,C57BL/6J male mice; plasma,No liver toxicity
